# Laboratory results reported in ChEMBL document CHEMBL1201862, “PubChem BioAssay data set” (2004).
#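 Cultured in 96-well plates, cells were exposed to test compound for 48 hours across five concentrations. At the GI50, growth is halved.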 Activity calls are given as the source filed them. Cut-off read from the data, not from the text of the source: active = GI50 up to about 1.1 µM and inactive = higher.
# Legend:
# Assay in all cases: inhibition of tumour cell growth, NCI panel, 48 h
# HOP-92 = system: HOP-92
# M14 = system: M14
# NCI-H460 = system: NCI-H460
# ACHN = system: ACHN
# NCI-H522 = system: NCI-H522
# OVCAR-3 = system: OVCAR-3
# BT-549 = system: BT-549
# SF-268 = system: SF-268
# SN12C = system: SN12C
# K562 = system: K562
# OVCAR-4 = system: OVCAR-4
# OVCAR-8 = system: OVCAR-8
# NCI/ADR-RES = system: NCI/ADR-RES
# SF-295 = system: SF-295
# Malme-3M = system: Malme-3M
# NCI-H226 = system: NCI-H226
# SK-MEL-5 = system: SK-MEL-5
# HOP-62 = system: HOP-62
# CAKI-1 = system: CAKI-1
# A498 = system: A498
Compound,GI50 (HOP-92),GI50 (M14),GI50 (NCI-H460),GI50 (ACHN),GI50 (NCI-H522),GI50 (OVCAR-3),GI50 (BT-549),GI50 (SF-268),GI50 (SN12C),GI50 (K562),GI50 (OVCAR-4),GI50 (OVCAR-8),GI50 (NCI/ADR-RES),GI50 (SF-295),GI50 (Malme-3M),GI50 (NCI-H226),GI50 (SK-MEL-5),GI50 (HOP-62),GI50 (CAKI-1),GI50 (A498)
Cc1cc(C)nc(NS(=O)(=O)c2ccc(NNc3c4ccccc4nc4c(C(=O)Nc5ccc(S(=O)(=O)N=C(N)N)cc5)cccc34)cc2)n1,35.6 µM (inactive),97.9 µM (inactive),47.4 µM (inactive),45 µM (inactive),36.6 µM (inactive),31.8 µM (inactive),56 µM (inactive),45 µM (inactive),64.1 µM (inactive),31.4 µM (inactive),65.2 µM (inactive),52.4 µM (inactive),> 100 µM (inactive),77.3 µM (inactive),76 µM (inactive),49.7 µM (inactive),53.1 µM (inactive),> 100 µM (inactive),> 100 µM (inactive),
OCC1OC(NC(=S)NCCC(F)(F)C(F)(F)C(F)(F)C(F)(F)C(F)(F)C(F)(F)F)C(O)C(O)C1O (configuration not stated),29.2 µM (inactive),56.4 µM (inactive),> 100 µM (inactive),88.1 µM (inactive),,> 100 µM (inactive),> 100 µM (inactive),> 100 µM (inactive),> 100 µM (inactive),28.2 µM (inactive),> 100 µM (inactive),,> 100 µM (inactive),80.9 µM (inactive),> 100 µM (inactive),,35.6 µM (inactive),71.4 µM (inactive),> 100 µM (inactive),18.5 µM (inactive)
COc1ccc(NC(=S)N/N=C/c2c(C)n(C)n(-c3ccccc3)c2=O)cc1,22.2 µM (inactive),> 100 µM (inactive),,34.7 µM (inactive),,,43.7 µM (inactive),27.9 µM (inactive),,26.2 µM (inactive),19.1 µM (inactive),20.7 µM (inactive),42.9 µM (inactive),37.9 µM (inactive),,35.6 µM (inactive),> 100 µM (inactive),19.4 µM (inactive),22 µM (inactive),17.2 µM (inactive)
Cc1ccc(O)c(-c2cc(-c3cccc(Br)c3)on2)c1,22.2 µM (inactive),36.8 µM (inactive),29.1 µM (inactive),35.6 µM (inactive),,19.1 µM (inactive),27.7 µM (inactive),24.2 µM (inactive),23.8 µM (inactive),29.6 µM (inactive),11.6 µM (inactive),25.8 µM (inactive),31.8 µM (inactive),32.4 µM (inactive),32.6 µM (inactive),,18.1 µM (inactive),47.8 µM (inactive),23.4 µM (inactive),68.9 µM (inactive)
CCN1C(=S)n2cccc2C1CC(=O)c1ccc(Cl)cc1 (configuration not stated),> 100 µM (inactive),89.9 µM (inactive),34.7 µM (inactive),> 100 µM (inactive),15.5 µM (inactive),74 µM (inactive),64.9 µM (inactive),63.1 µM (inactive),> 100 µM (inactive),53.7 µM (inactive),93.3 µM (inactive),> 100 µM (inactive),42.4 µM (inactive),63.7 µM (inactive),57.3 µM (inactive),,,> 100 µM (inactive),> 100 µM (inactive),43.5 µM (inactive)
CC(C)(C)OC(=O)N1CCCC1C(=O)NCCNc1ccc(NCCNC(=O)C2CCCN2C(=O)OC(C)(C)C)c2c1C(=O)c1ccccc1C2=O (configuration not stated),13.8 µM (inactive),15.8 µM (inactive),,15.4 µM (inactive),13 µM (inactive),14.1 µM (inactive),13 µM (inactive),31.3 µM (inactive),,< 0.01 µM (active),15 µM (inactive),5.83 µM (inactive),10.4 µM (inactive),18 µM (inactive),15.1 µM (inactive),18.5 µM (inactive),0.112 µM (active),15.4 µM (inactive),18.5 µM (inactive),
Clc1ccc(Cl)c(Nc2ccnc(SCc3ccccc3)n2)c1,> 100 µM (inactive),70 µM (inactive),54.8 µM (inactive),> 100 µM (inactive),84.9 µM (inactive),> 100 µM (inactive),> 100 µM (inactive),> 100 µM (inactive),> 100 µM (inactive),> 100 µM (inactive),> 100 µM (inactive),> 100 µM (inactive),> 100 µM (inactive),> 100 µM (inactive),> 100 µM (inactive),,> 100 µM (inactive),> 100 µM (inactive),> 100 µM (inactive),> 100 µM (inactive)
Cc1ccc2[nH]c3[nH]c(=S)[nH]c(=O)c3c2c1,> 100 µM (inactive),> 100 µM (inactive),,> 100 µM (inactive),> 100 µM (inactive),72.9 µM (inactive),> 100 µM (inactive),> 100 µM (inactive),> 100 µM (inactive),96.4 µM (inactive),,> 100 µM (inactive),> 100 µM (inactive),> 100 µM (inactive),> 100 µM (inactive),> 100 µM (inactive),> 100 µM (inactive),> 100 µM (inactive),> 100 µM (inactive),> 100 µM (inactive)
CC1=NN(C(=O)CC(=O)Nc2ccccc2C)C(=O)C1/N=N/c1ccc(C(=O)O)cc1 (configuration not stated),20.5 µM (inactive),> 100 µM (inactive),> 100 µM (inactive),> 100 µM (inactive),> 100 µM (inactive),> 100 µM (inactive),> 100 µM (inactive),> 100 µM (inactive),> 100 µM (inactive),> 100 µM (inactive),> 100 µM (inactive),> 100 µM (inactive),> 100 µM (inactive),> 100 µM (inactive),> 100 µM (inactive),,> 100 µM (inactive),> 100 µM (inactive),> 100 µM (inactive),> 100 µM (inactive)
CCOC(=O)N1CCN(c2c(N)nc(C)nc2O)CC1,> 100 µM (inactive),> 100 µM (inactive),> 100 µM (inactive),> 100 µM (inactive),> 100 µM (inactive),> 100 µM (inactive),> 100 µM (inactive),> 100 µM (inactive),> 100 µM (inactive),> 100 µM (inactive),> 100 µM (inactive),> 100 µM (inactive),> 100 µM (inactive),> 100 µM (inactive),> 100 µM (inactive),> 100 µM (inactive),,> 100 µM (inactive),,> 100 µM (inactive)
Cc1c(S(=O)(=O)N/C(=N\O)Nc2ccc(Cl)cc2)sc2ccc(Cl)cc12,14.6 µM (inactive),16.9 µM (inactive),24.8 µM (inactive),15.2 µM (inactive),9.91 µM (inactive),11.3 µM (inactive),17.4 µM (inactive),18.1 µM (inactive),20.3 µM (inactive),31 µM (inactive),16.9 µM (inactive),17.3 µM (inactive),18 µM (inactive),17.6 µM (inactive),18.5 µM (inactive),17.7 µM (inactive),14.1 µM (inactive),17.7 µM (inactive),17.5 µM (inactive),
